Experimental data: US20140045744A1, “CULTURED COLLECTION OF GUT MICROBIAL COMMUNITY” (THE WASHINGTON UNIVERSITY, priority 2011, published 2014)

System: E. coli MegaX DH10B T1R cells
Type: cell-based, Escherichia coli
Conditions: for MIC: antibiotics used in functional metagenomic selections of E. coli libraries
Text: To compare further the functions represented in the complete and cultured microbiota independent of annotation, antibiotic-resistance genes were captured from their microbiomes in expression vectors in Escherichia coli. Each E. coli library contained ˜1 GB of 1.5- to 4-kB fragments of microbiome DNA subcloned into an expression vector and was screened against a panel of 15 antibiotics and clinically relevant antibiotic combinations (Table 3). Genes encoding resistance to the same 14 antibiotics were captured in libraries prepared from complete and cultured fecal samples (FIG. 3G and Table 4). In one example, a screen for DNA fragments that confer resistance to the aminoglycoside amikacin produced candidate genes from the microbiomes of both complete and cultured microbial communities from Donor 1 but not from Donor 2. Two genes conferring amikacin resistance (either the 16S rRNA methylase rmtD or the aminoglycoside phosphotransferase aphA-3) were identified in 70% of the DNA fragments captured in selections for this phenotype.
DNA fragments from complete and cultured communities were cloned into an expression vector, electroporated into Escherichia coli, and screened for their ability to confer resistance to 15 different antibiotics. To this end, 10 μg of DNA purified from the two human donors' fecal microbiota, from the derived cultured communities, plus pooled contents of the arrayed strain collection were sheared to 1.5- to 4-kB fragments (Bioruptor XL), followed by size selection (1% agarose gel electrophoresis). Sheared DNA then was endrepaired (Epicentre Endlt Kit), column-purified (Qiagen Qia-Quick PCR Purification Kit), and concentrated in a vacuum evaporator (SpeedVac). […] Approximately 500 ng of the DNA fragments were ligated to 100 ng of the linearized vector in an overnight ligation reaction (Epicentre FastLink Ligation Kit). The ligation reaction was desalted by dialysis in double-distilled H2O and electroporated into E. coli MegaX DH10B T1R cells (Invitrogen). After 1 h of recovery, a small (1 μL) aliquot of the library was titered with serial dilutions onto LB agar plates containing 50 μg/mL kanamycin (to select for pZE21 transformants) and incubated at 37° C. for 16 h. The insert size distribution for each library was characterized by gel electrophoresis of amplicons obtained using primers flanking the HincII site in the multiple cloning site of pZE21 MCS1. The total size of each library was estimated by multiplying average insert size by the number of cfu in a given library. The remainder of the recovered cells was inoculated into 10 mL LB containing 50 μg/mL kanamycin and grown overnight, with shaking, at 27° C. for ˜16 h. The culture subsequently was diluted with an equal volume of LB medium containing 30% glycerol and stored at −80° C. before screening.
For functional selections, 100 μL of each library freezer stock (corresponding to 0.5-1×10^8 cfu) was plated on an LB agar plate containing kanamycin (50 μg/mL) plus one of 15 different antibiotics (Table 3). The total number of cells plated on each antibiotic represented ˜10 copies of each original unique transformant. Antibiotic-resistant colonies were scored after plates had been incubated at 37° C. for 16 h. Inserts contained in colonies with amikacin-, piperacillin- and piperacillin/tazobactam-resistant phenotypes were subjected to bidirectional Sanger sequencing (Beckman Coulter Genomics) using primers pZE21—81—104—57C (5′-[…] GGT-3′; SEQ ID NO 5) and pZE21—151—174rc—58C (5′-[…]-3′; SEQ ID NO 6). Resulting reads were trimmed to remove low-quality and vector sequences and subjected to within-library contig assembly (≧200 bp of 97% ID sequence required). Contigs and unassembled reads were mapped by BLAST to the National Center for Biotechnology Information (NCBI) nonredundant database and to a custom database of 122human gutmicrobial genomes. All sequence datasets have been deposited in the NCBI Sequence Read Archive (SRA) under accession no. […]

Compound	MIC [µg/mL]	also measured
Trimethoprim + Sulfamethoxazole		MIC (mg/mL), SX of TR + SX (sulfamethoxazole part of the combination): 38 mg/mL; MIC (mg/mL), TR of TR + SX (trimethoprim part of the combination): 2 mg/mL
Piperacillin + Tazobactam		MIC (mg/mL), PI of PI + TZ (piperacillin part of the combination): 16 mg/mL; MIC (mg/mL), TZ of PI + TZ (tazobactam part of the combination): 4 mg/mL
O=C(N[C@H](CO)[C@H](O)c1ccc([N+](=O)[O-])cc1)C(Cl)Cl [Cloramphenicol]	8000	
CN(C)[C@@H]1C(=O)C(C(N)=O)=C(O)[C@@]2(O)C(=O)C3=C(O)c4c(O)cccc4[C@@](C)(O)[C@H]3C[C@@H]12 [Tetracyline]	8000	
Gentamicin	16000	
CN(C)[C@@H]1C(O)=C(C(N)=O)C(=O)[C@@]2(O)C(O)=C3C(=O)c4c(O)cccc4[C@@](C)(O)[C@H]3[C@H](O)[C@@H]12 [Oxytetracyline]	8000	
Penicillin	128000	
